From US10292960B2, “Anticancer agent comprising aminoacetonitrile compound as active ingredient” (PITNEY PHARMACEUTICALS PTY LIMITED, priority 2013, dated 2019)

What was measured:
[1] = system: oophoroma cell line (A2780); assay: Test for cell growth inhibitory activity against A2780 (epithelial ovarian cancer); type: cell-based; details: cultured 72 hr, sulforhodamine B
Procedure: An experiment was performed according to the method described in Ahmed SA et al., 1994. Journal of Immunological Methods 170: 211-224, or Boyed M R et al., 1989.
(§1) A cell suspension of oophoroma cell line (A2780) prepared to 2 to 3×10^3/well was added to a well microplate, a given amount of a test substance (0, 1.25, 2.5, 5, 10, 12.5, 20, 25, 50, 100 μM) was added to the culture medium, and the mixture was cultured for 72 hr. Thereafter, 0.4% sulforhodamine B was added to each well, and the absorbance at 570 nm was measured by a microplate reader. The cell growth inhibition ratio was calculated from the above-mentioned formula, and IC50 value was determined from the data. The same test was performed using HOSE cell (normal ovary cell line) as a comparison target instead of A2780 cell, and IC50 value was determined.

[2] = system: HOSE cell (normal ovary cell line); assay: Cell growth inhibitory activity against HOSE cell (comparison target); type: cell-based; details: cultured 72 hr, sulforhodamine B
Procedure: as §1

IC50 [1]	Structure (SMILES)	IC50 [2]
6.2 µM	CC(C)(C)C#Cc1ccc(OCC(C)(C#N)NC(=O)Cc2ccc(C(F)(F)F)cc2)cc1 (stereo not drawn) [2-120]	10.4 µM
3.53 µM	CC(C#N)(COc1ccc(Cl)cc1)NC(=O)Cc1ccc(SC(F)(F)C(F)(F)C(F)(F)F)cc1 (stereo not drawn) [2-114]	19.9 µM
8.81 µM	CC(C)C(C#N)(COc1ccc(Cl)cc1)NC(=O)Cc1cccc(Cl)c1 (stereo not drawn) [2-27]	15.8 µM
7.22 µM	CCCCCCCCOCC(C)(C#N)NC(=O)Cc1ccc(C(F)(F)F)cc1 (stereo not drawn) [4-1]	–
3.77 µM	CC(C#N)(COc1ccc(C(F)(F)F)cc1)NC(=O)Cc1ccc(C(F)(F)C(F)(F)C(F)(F)F)cc1 (stereo not drawn) [2-109]	–

The remaining lines, values behind:

Structure (SMILES)	IC50 [1]	IC50 [2]
CC(C)(C)C(C#N)(COc1ccc(C(F)(F)F)cc1)NC(=O)c1ccc(Cl)cc1Cl (racemic) [1-56]	11.4 µM	–
CC(C#N)(COc1ccc(C(F)(F)F)cc1)NC(=O)c1cccc(OC(F)(F)F)c1 (racemic) [1-29]	13.3 µM	–
Cn1nc(C(F)(F)F)cc1C(=O)NC(C)(C#N)COc1ccc(Cl)cc1 (racemic) [1-39]	6.97 µM	–
CC(C#N)(COc1ccc(C#Cc2ccccc2)cc1)NC(=O)c1ccc(C(F)(F)F)cc1 (racemic) [1-25]	4.53 µM	15.3 µM
CC(C#N)(COc1ccc(C(F)(F)F)cc1)NC(=O)c1ccc(C(F)(F)C(F)(F)F)cc1 (racemic) [1-10]	10.3 µM	49.4 µM
